The source of these data is article PMC10963303 (Pharmacology Research & Perspectives, 2024).

In series [1] the test system is 80 known receptors, ion channels, and enzyme targets. Briefly: Screen of 80 known receptors, ion channels, and enzyme targets. As to conditions: concentrations up to 10 μM; internal data.
For series [2] the following is noted: human, in vivo, po, 100 mg.
Series [3] has as its system human P‐gp, BCRP, BSEP, MATE1, MATE2‐K, OAT1, OAT3, OATP1B1, OATP1B3, OCT1, OCT2. As to conditions: tested transporter panel (ulotaront: except OCT2); cited from earlier work.
The next series relates to OAT3. Particulars: at 50 μM; cited from earlier work.
For the next series, the system named is MATE1. Particulars: at 50 μM; cited from earlier work.
For series [4] the following is noted: plasma; placebo + metformin‐HCl 850 mg single dose.
Another series can be described thus: clinical. As to conditions: human, in vivo.
Series [5] deals with T1, OCT2 (Homo sapiens, UniProt O15244).
T1 sequence (O15244 1-555): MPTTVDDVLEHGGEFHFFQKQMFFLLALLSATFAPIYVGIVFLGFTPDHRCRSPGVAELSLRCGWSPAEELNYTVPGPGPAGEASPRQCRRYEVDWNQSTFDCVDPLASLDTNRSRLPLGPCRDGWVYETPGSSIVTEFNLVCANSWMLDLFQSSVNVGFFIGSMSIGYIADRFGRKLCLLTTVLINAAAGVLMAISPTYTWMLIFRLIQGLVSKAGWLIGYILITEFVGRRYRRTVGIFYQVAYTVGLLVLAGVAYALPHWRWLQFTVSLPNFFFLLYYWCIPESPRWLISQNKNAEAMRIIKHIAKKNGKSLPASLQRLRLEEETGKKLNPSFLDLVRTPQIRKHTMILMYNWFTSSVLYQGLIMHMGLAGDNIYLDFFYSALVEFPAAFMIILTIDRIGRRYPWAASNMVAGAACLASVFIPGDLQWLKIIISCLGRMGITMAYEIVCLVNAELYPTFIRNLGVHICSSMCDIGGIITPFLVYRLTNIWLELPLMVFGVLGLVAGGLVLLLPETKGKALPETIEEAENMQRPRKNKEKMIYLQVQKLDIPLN
Kind of series: clinical. Particulars: plasma, oral.

In series [6] the target is T1, OCT2. Also on record: […]; from tissue; host or cells: kidney of adult human subjects with schizophrenia (in vivo clinical study). As to conditions: cited from earlier work.

Where two headings read alike, the source gives them in different places.

A word on the Cmax: it is the highest concentration seen after dosing. Broadly, the Tmax is the time at which the peak concentration occurs. By Vd/F is commonly meant the volume of distribution divided by bioavailability. Usually AUC(0-inf) stands for total exposure, with the tail of the curve extrapolated.

Consider `O=C(O)[C@@H]1OCCc2ccsc21` [SEP‐383103], for which the “binding or functional activity in screen of 80 targets” value in [1] was “did not identify binding or functional activity”. For the same compound, in series [2], the “AUCinf, Geometric mean (CV%)” value is on record as 2510 (30.1) ng * h/mL; the “AUCinf, Mean (SD)” value was 2620 (797) ng * h/mL; the “AUCinf, Median (min, max)” value is 2490 (1550, 4810) ng * h/mL; the “AUClast, Geometric mean (CV%)” value was 2520 (29.7) ng * h/mL. Besides, in series [2], the “AUClast, Mean (SD)” value was 2630 (780) ng * h/mL; the “AUClast, Median (min, max)” value is reported as 2490 (1540, 4760) ng * h/mL; the “C max, Geometric mean (CV%)” value is listed as 150 (22.6) ng/mL; the “C max, Mean (SD)” value was 154 (34.9) ng/mL. Further, in series [2], the “C max, Median (min, max)” value is 156 (99.7, 255) ng/mL; the “t 1/2, Mean (SD)” value is on record as 9.17 (1.78) h; the “t max, Median (min, max)” value was 6.00 (3.00, 8.00) h. Moreover, the “inhibitor of human efflux and uptake transporters” value in series [3] is on record as “not an inhibitor”. Also, the “inhibition of OAT3” value with OAT3 is ~ 35%. For the same compound, the “inhibition of MATE1” value in the series with MATE1 was ~ 20%.
For `CN(C)C(=N)N=C(N)N` [metformin], the “t max, Median (min, max)” value in series [4] is 4.0 (2.0, 5.0) h. In addition, in the series “clinical”, the Cmax was determined as 1130 ng/mL, the Tmax stood at 4.5 h and the Vd/F turned out to be 1280 L. In addition, in the series “clinical” (po, 850 mg), the CL renal was 287 mL/min. Further, the area under the curve AUC(0-inf) on OCT2 [5] was 12500 ng·h/mL.
Regarding `C[C@@H]1CCO[C@H]2Cn3cc(C(=O)NCc4ccc(F)cc4F)c(=O)c(O)c3C(=O)N12` [dolutegravir], the “increase of metformin AUC” value at OCT2 [6] (co‐administration of 50 mg dolutegravir bid) is 145%; at OCT2 [6] (co‐administration of 50 mg dolutegravir qd) it was 79%. Besides, the “unbound C max/IC50 ratio (OCT2)” value on OCT2 [6] (dolutegravir oral 50 mg qd or bid) is recorded as 2–3.6.
